Experimental data reported in US9399904B2, “Oil recovery system and method” (SHELL OIL COMPANY, priority 2013, dated 2016).

Assay: Dynamic viscosity of crude/dimethyl sulfide blends, closed cup rheometer
Format: physicochemical
Protocol: The quality of dimethyl sulfide as an oil recovery agent based on the crude oil viscosity lowering properties of dimethyl sulfide was evaluated. Three crude oils having widely disparate viscosity characteristics—an African Waxy crude, a Middle Eastern asphaltic crude, and a Canadian asphaltic crude—were blended with dimethyl sulfide.
A control sample of each crude was prepared containing no dimethyl sulfide, and samples of each crude were prepared and blended with dimethyl sulfide to prepare crude samples containing increasing concentrations of dimethyl sulfide. The samples were heated to 60° C. to dissolve any waxes therein and to permit weighing of a homogeneous liquid. The samples were weighed, allowed to cool overnight, then blended with a selected quantity of dimethyl sulfide. The samples of the crude/dimethyl sulfide blend were then heated to 60° C. and mixed to ensure homogeneous blending of the dimethyl sulfide in the samples. Absolute (dynamic) viscosity measurements of each of the samples were taken using a closed cup rheometer using a PZ39 rotor sensor assembly in the rheometer. Viscosity measurements of each of the samples of the West African waxy crude and the Middle Eastern asphaltic crude were taken at 20° C., 40° C., 60° C., 80° C., and then again at 20° C. after cooling from 80° C., where the second measurement at 20° C. is taken to measure the viscosity without the presence of waxes since wax formation occurs slowly enough to permit viscosity measurement at 20° C. without the presence of wax. Viscosity measurements of each of the samples of the Canadian asphaltic crude were taken at 5° C., 10° C., 20° C., 40° C., 60° C., 80° C., The measured viscosities for each of the crudes are shown in Tables 4, 5, and 6 below.

## CSC [Dimethyl Sulfide, dimethyl sulfide]
9.80 wt. % DMS, 20° C.
  Viscosity of Topped Canadian Asphaltic Crude: 2760 mPa s
9.80 wt. % DMS, 40° C.
  Viscosity of Topped Canadian Asphaltic Crude: 571 mPa s
9.80 wt. % DMS, 60° C.
  Viscosity of Topped Canadian Asphaltic Crude: 173 mPa s
9.80 wt. % DMS, 80° C.
  Viscosity of Topped Canadian Asphaltic Crude: 73 mPa s
9.95 wt. % DMS, 20° C.
  Viscosity of West African Waxy Crude: 44.70 mPa s
9.95 wt. % DMS, 20° C. after cooling from 80° C.
  Viscosity of West African Waxy Crude: 30.61 mPa s
9.95 wt. % DMS, 40° C.
  Viscosity of West African Waxy Crude: 13.03 mPa s
9.95 wt. % DMS, 60° C.
  Viscosity of West African Waxy Crude: 7.58 mPa s
9.95 wt. % DMS, 80° C.
  Viscosity of West African Waxy Crude: 5.04 mPa s
10.1 wt. % DMS, 20° C.
  Viscosity of Middle Eastern Asphaltic Crude: 150.0 mPa s
10.1 wt. % DMS, 20° C. after cooling from 80° C.
  Viscosity of Middle Eastern Asphaltic Crude: 150.5 mPa s
10.1 wt. % DMS, 40° C.
  Viscosity of Middle Eastern Asphaltic Crude: 52.4 mPa s
10.1 wt. % DMS, 60° C.
  Viscosity of Middle Eastern Asphaltic Crude: 24.5 mPa s
10.1 wt. % DMS, 80° C.
  Viscosity of Middle Eastern Asphaltic Crude: 13.5 mPa s
14.81 wt. % DMS, 5° C.
  Viscosity of Topped Canadian Asphaltic Crude: 1794 mPa s
14.81 wt. % DMS, 10° C.
  Viscosity of Topped Canadian Asphaltic Crude: 1155 mPa s
14.81 wt. % DMS, 20° C.
  Viscosity of Topped Canadian Asphaltic Crude: 548 mPa s
14.81 wt. % DMS, 40° C.
  Viscosity of Topped Canadian Asphaltic Crude: 159 mPa s
14.81 wt. % DMS, 60° C.
  Viscosity of Topped Canadian Asphaltic Crude: 64 mPa s
14.81 wt. % DMS, 80° C.
  Viscosity of Topped Canadian Asphaltic Crude: 32 mPa s
15.13 wt. % DMS, 20° C.
  Viscosity of West African Waxy Crude: 23.96 mPa s
15.13 wt. % DMS, 20° C. after cooling from 80° C.
  Viscosity of West African Waxy Crude: 17.64 mPa s
15.13 wt. % DMS, 40° C.
  Viscosity of West African Waxy Crude: 8.32 mPa s
15.13 wt. % DMS, 60° C.
  Viscosity of West African Waxy Crude: 4.97 mPa s
15.13 wt. % DMS, 80° C.
  Viscosity of West African Waxy Crude: 3.38 mPa s
15.2 wt. % DMS, 20° C.
  Viscosity of Middle Eastern Asphaltic Crude: 59.4 mPa s
15.2 wt. % DMS, 20° C. after cooling from 80° C.
  Viscosity of Middle Eastern Asphaltic Crude: 60.7 mPa s
15.2 wt. % DMS, 40° C.
  Viscosity of Middle Eastern Asphaltic Crude: 25.2 mPa s
15.2 wt. % DMS, 60° C.
  Viscosity of Middle Eastern Asphaltic Crude: 13.6 mPa s
15.2 wt. % DMS, 80° C.
  Viscosity of Middle Eastern Asphaltic Crude: 8.2 mPa s
19.30 wt. % DMS, 20° C.
  Viscosity of West African Waxy Crude: 15.26 mPa s
19.30 wt. % DMS, 20° C. after cooling from 80° C.
  Viscosity of West African Waxy Crude: 12.06 mPa s
19.30 wt. % DMS, 40° C.
  Viscosity of West African Waxy Crude: 6.25 mPa s
19.30 wt. % DMS, 60° C.
  Viscosity of West African Waxy Crude: 4.05 mPa s
19.30 wt. % DMS, 80° C.
  Viscosity of West African Waxy Crude: 2.92 mPa s
19.78 wt. % DMS, 20° C.
  Viscosity of Topped Canadian Asphaltic Crude: 188 mPa s
19.78 wt. % DMS, 40° C.
  Viscosity of Topped Canadian Asphaltic Crude: 69 mPa s
19.78 wt. % DMS, 60° C.
  Viscosity of Topped Canadian Asphaltic Crude: 33 mPa s
19.78 wt. % DMS, 80° C.
  Viscosity of Topped Canadian Asphaltic Crude: 19 mPa s
20.1 wt. % DMS, 20° C.
  Viscosity of Middle Eastern Asphaltic Crude: 29.9 mPa s
20.1 wt. % DMS, 20° C. after cooling from 80° C.
  Viscosity of Middle Eastern Asphaltic Crude: 31.0 mPa s
20.1 wt. % DMS, 40° C.
  Viscosity of Middle Eastern Asphaltic Crude: 14.8 mPa s
20.1 wt. % DMS, 60° C.
  Viscosity of Middle Eastern Asphaltic Crude: 8.7 mPa s
20.1 wt. % DMS, 80° C.
  Viscosity of Middle Eastern Asphaltic Crude: 5.7 mPa s
29.88 wt. % DMS, 5° C.
  Viscosity of Topped Canadian Asphaltic Crude: 113 mPa s
29.88 wt. % DMS, 10° C.
  Viscosity of Topped Canadian Asphaltic Crude: 81 mPa s
29.88 wt. % DMS, 20° C.
  Viscosity of Topped Canadian Asphaltic Crude: 51 mPa s
29.88 wt. % DMS, 40° C.
  Viscosity of Topped Canadian Asphaltic Crude: 22 mPa s
29.88 wt. % DMS, 60° C.
  Viscosity of Topped Canadian Asphaltic Crude: 13 mPa s
29.88 wt. % DMS, 80° C.
  Viscosity of Topped Canadian Asphaltic Crude: 8 mPa s
39.61 wt. % DMS, 5° C.
  Viscosity of Topped Canadian Asphaltic Crude: 23 mPa s
39.61 wt. % DMS, 10° C.
  Viscosity of Topped Canadian Asphaltic Crude: 20 mPa s
39.61 wt. % DMS, 20° C.
  Viscosity of Topped Canadian Asphaltic Crude: 14 mPa s
39.61 wt. % DMS, 40° C.
  Viscosity of Topped Canadian Asphaltic Crude: 8 mPa s
39.61 wt. % DMS, 60° C.
  Viscosity of Topped Canadian Asphaltic Crude: 6 mPa s
39.61 wt. % DMS, 80° C.
  Viscosity of Topped Canadian Asphaltic Crude: 4 mPa s
All three crudes, particularly Canadian asphaltenic crude oil
  lowering the viscosity of a crude oil, in words: effective for significantly lowering the viscosity of a crude oil
